Laboratory results: patent EP2510787A1, “Propenoates as fungicides” (Bayer CropScience AG, priority 2011, dated 2012)

Experiments:
[1] = logP measurement by HPLC on reversed phase columns (EEC directive 79/831 Annex V.A8); type: physicochemical; conditions: pH 2.7, pH 2,7 with 0,1 % formic acid in water and acetonitrile, linear gradient 10 % to 95 % acetonitrile
Plasmopara viticola = test: Plasmopara test (grapevines) / preventive; type: in vivo; conditions: preventive spray, 100 ppm of active ingredient, evaluated 6 days after the inoculation, 100 % = no disease
Protocol: Plasmopara test (grapevines) / preventive
To produce a suitable preparation of active compound, 1 part by weight of active compound is mixed with the stated amounts of solvent and emulsifier, and the concentrate is diluted with water to the desired concentration.
To test for preventive activity, young plants are sprayed with the preparation of active compound at the stated rate of application. After the spray coating has dried on, the plants are inoculated with an aqueous spore suspension of Plasmopara viticola and then remain for 1 day in an incubation cabinet at approximately 20°C and a relative atmospheric humidity of 100 %. The plant is subsequently placed for 4 days in a greenhouse at approximately 21°C and a relative atmospheric humidity of approximately 90 %. The plants are then misted and placed for 1 day in an incubation cabinet.
The test is evaluated 6 days after the inoculation. 0 % means an efficacy which corresponds to that of the untreated control, while an efficacy of 100 % means that no disease is observed.

Row | chromatographic logP [1] | SMILES | Efficacy in % (Plasmopara viticola) [%]
1 | 2.61 | C#CCC(C)OC(=C(C#N)C(=O)OCC)c1cccnc1Cl (centres unmarked) [Example 10] | 
2 | 2.9 | CCOC(=O)C(C#N)=C(OC1(C(=O)OCC)CC1)c1cccnc1Cl [Example 24] | 
3 | 3.3 | CCOC(=O)C(C#N)=C(SC(C)C(C)C)c1cn(C)nc1C(F)F (centres unmarked) [Example 19] | 92
4 | 3.25 | CCOC(=O)C(C#N)=C(OC(C)C(C)C)c1ccnn1C(F)F (centres unmarked) [Example 15] | 
5 | 3.96 | CCOC(=O)C(C#N)=C(OC(C)C(CC)CC)c1cccnc1Cl (centres unmarked) [Example 2] | 
6 | 2.2 | CCOC(=O)C(C#N)=C(OC(C)C1=NOCCO1)c1cccnc1Cl (centres unmarked) [Example 9] | 
7 | 2.71 | CCOC(=O)C(C#N)=C(O[C@H](C)C(=O)OCC)c1cccnc1Cl [Example 13] | 
8 | 2.44 | CCOC(=O)C(C#N)=C(OC(C)COC)c1cccnc1Cl (centres unmarked) [Example 8] | 
9 | 3.59 | CCOC(=O)C(C#N)=C(SC(C)C(C)C)c1ccnn1C(F)F (centres unmarked) [Example 6] | 
10 | 3.37 | CCOC(=O)C(C#N)=C(OC(C)C(C)C)c1scnc1Cl (centres unmarked) [Example 16] | 
11 | 3.92 | CCOC(=O)C(C#N)=C(OC(C)CC(C)(C)C)c1cccnc1Cl (centres unmarked) [Example 4] | 
12 | 3.57 | CCOC(=O)C(C#N)=C(OC(C)C(C)(C)C)c1cccnc1Cl (centres unmarked) [Example 5] | 
13 | 2.98 | CCOC(=O)C(C#N)=C(OC(C)C(C)C)c1cn(C)nc1C(F)F (centres unmarked) [Example 12] | 
14 | 3.33 | CCOC(=O)C(C#N)=C(OC(C)C=C(Cl)Cl)c1cccnc1Cl (centres unmarked) [Example 26] | 
15 | 2.4 | CCOC(=O)C(C#N)=C(O[C@@H](C)C(=O)OC)c1cccnc1Cl [Example 20] | 
16 | 3.27 | CCOC(=O)C(C#N)=C(OC(C)C(C)C)c1cccnc1Cl (centres unmarked) [Example 7] | 
17 | 2.51 | CCOC(=O)C(C#N)=C(SC(C)c1ccccn1)c1cccnc1Cl (centres unmarked) [Example 17] | 
18 | 2.9 | CCOC(=O)C(C#N)=C(OC(C)c1ccc(Cl)nc1)c1cccnc1Cl (centres unmarked) [Example 11] | 
19 | 2.39 | CCOC(=O)C(C#N)=C(OC(C)c1ccccn1)c1cccnc1Cl (centres unmarked) [Example 23] | 
20 | 3.74 | CCOC(=O)C(C#N)=C(OC1CCCCC1C)c1cccnc1Cl (centres unmarked) [Example 21] | 
21 | 3.79 | CCOC(=O)C(C#N)=C(SC(C)C(C)C)c1scnc1Cl (centres unmarked) [Example 22] | 

Row | SMILES | chromatographic logP [1] | Efficacy in % (Plasmopara viticola) [%]
22 | CCOC(=O)C(C#N)=C(SC(C)C(C)C)c1cccnc1Cl (centres unmarked) [Example 1] | 3.8 | 88
23 | CCOC(=O)C(C#N)=C(SC(C)CC)c1cn(C)nc1C(F)F (centres unmarked) [Example 3] | 3.11 | 
24 | CCCC(C)SC(=C(C#N)C(=O)OCC)c1cccnc1Cl (centres unmarked) [Example 25] | 3.78 | 
